Where a name gives a salt, the structure may show the parent alone.
Test system: skin
Test: Photodynamic peeling: ointment applied to facial skin, then 635 nm excimer dye laser irradiation
Conditions: for time at which peeling was completed after the operation: 635 nm
[1] = Example 1: 10 g of 20% ointment, left half of face, 4 hours, 5 J/cm^2 for 30 minutes
[2] = Example 2: 5 g of 20% ointment, right cheek, 12 hours, 5 J/cm^2 for 15 minutes

day from which edematous erythema gradually disappeared [1]: 3 days
day from which edematous erythema gradually disappeared [2]: 3 days
SMILES: NCC(=O)CCC(=O)O [5-ALA hydrochloride, 5-aminolevulinic acid]
condition of treated part in follow-up survey (Example 1: 6 months after the treatment): still remained in favorable conditions
skin reaction at the affected part after irradiation [1]: edematous erythema was formed at the affected part
time at which peeling was completed after the operation (Example 1: person, 10 g of 20% by weight ointment on left half of face, 4 hours shaded, 5 J/cm^2 for 30 minutes): 3 weeks
skin tension, wrinkles, pigmentation, acne spots compared with the untreated right part of the face (Example 1: treated left versus right part of face): obviously relieved
skin reaction at the affected part after irradiation [2]: edematous erythema was formed at the affected part
condition of treated part in follow-up survey (Example 2: 6 months after the treatment): still remained in favorable conditions
time at which peeling was completed after the operation (Example 2: person, 5 g of 20% by weight ointment on right cheek (6 cm×6 cm), 12 hours shaded, 5 J/cm^2 for 15 minutes): 6 days
skin tension, wrinkles, pigmentation, acne spots compared with the corresponding part in the left cheek (Example 2: treated right cheek versus left cheek): obviously relieved
